Tests used:
Aβ42 (β-amyloid peptide) [1] = target: T1, Aβ42 (β-amyloid peptide) (Homo sapiens, UniProt P05067); experiment: MS and LC-MS/MS detection of covalent adduct with Aβ[…]; ThT aggregation assay (IC50); type: biochemical
T1 construct: gene APP; Aβ42

Aβ42 (β-amyloid peptide) [2] = target: T1, Aβ42 (β-amyloid peptide); experiment: inhibition of Aβ[…] self-aggregation, MS monomer quantification at […] (also ThT assay); type: biochemical; settings: read-out: inhibition of Aβ42 self-aggregation / % inhibition by MS ± SD [I] = 50 μM ^b

T1 sequence (P05067 672-713): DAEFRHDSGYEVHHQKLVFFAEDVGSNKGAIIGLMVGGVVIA

Structure (SMILES) | IC50 (Aβ42 (β-amyloid peptide) [1]) | inhibition at 50 µM (Aβ42 (β-amyloid peptide) [2])
CCCSC(=O)/C=C/c1cc(O)ccc1O [compound 3, para-hydroquinone 3] | 10.2 µM | –
CCCSC(=O)/C=C/c1ccc(O)c(O)c1 [compound 1] | – | 56.9%
